The conditions of data set [1]: healthy volunteers; single dose up to 800 mg or multiple dose up to 600 mg every 8 hours for 14 consecutive days; cited from earlier work.
The next data set has as its system P. aeruginosa PAO200. The text has this:
(§1) To our curiosity, we explored whether efflux can affect the activity of polymyxins. It is widely accepted that polymyxins disrupt Gram-negative bacterial membranes that result to intracellular component leakage and bacterial cell death. However, for this to occur requires the agent to reach the periplasmic space to interact and disrupt the inner membrane. Active efflux may potentially expel polymyxins out of the periplasm, effectively reducing its periplasmic and intracellular concentrations. To study the effect of efflux on polymyxins in Gram-negative pathogens, we used P. aeruginosa as they inherently overexpress efflux systems such as MexAB-OprM, MexCD-OprJ and MexXY-OprM. Moreover, antibiotic substrates for these efflux systems are mostly characterized. We evaluated and compared the activity of the dilipid polymyxins, colistin and PMBN against wild-type PAO1 and two efflux-deficient P. aeruginosa isogenic mutants (Table 5). The strain PAO200 lacks the MexAB-OprM efflux system while strain PAO750 lacks five clinically-relevant pumps (MexAB-OprM, MexCD-OprJ, MexEF-OprN, MexJK and MexXY) and outer membrane protein OpmH.
(§2) Bacterial strains were either obtained from the American Type Culture Collection (ATCC), Canadian National Intensive Care Unit (CAN-ICU) surveillance study or the Canadian Ward Surveillance (CANWARD) study. Strains from both CAN-ICU and CANWARD are isolates recovered from patients diagnosed with a presumed infectious disease that were admitted in a participating medical center across Canada. Efflux-deficient strain PAO200 (lacking MexAB-OprM efflux system) and PA0750 (lacking MexAB-OprM, MexCD-OprJ, MexEF-OprN, MexJK and MexXY efflux systems, and the outer membrane protein OpmH) were kindly gifted by Dr. Ayush Kumar (University of Manitoba).
(§3) The in vitro antibacterial activity of the compounds studied were assessed by broth microdilution susceptibility testing following CLSI guidelines. Bacterial cultures were grown overnight prior to the assay. The overnight grown cultures were diluted in saline to 0.5 McFarland turbidity, followed by 1:50 dilution in Mueller-Hinton broth (MHB) for inoculation to a final concentration of approximately 5×10^5 colony forming units/mL. Testing was performed on 96-well plates where the tested compounds were 2-fold serially diluted in MHB and incubated with equal volumes of bacterial inoculum at 37° C. for 18 h. […] Wells containing MHB with or without bacterial cells were used as positive or negative control, respectively.

Another data set relates to P. aeruginosa PAO750. The settings on record: P. aeruginosa PAO750, efflux-deficient strain that lacks five pumps and OpmH.
From the text: as §1, §2, §3

A further data set relates to pig erythrocytes. The settings on record: red cells of pig, 1 h, 512.
The subject of data set [2] is P. aeruginosa PAO1. Type of data set: cell-based, Pseudomonas aeruginosa. The settings on record: P. aeruginosa PAO1 (wild type).
From the text: as §2, §3

Data set [3] has as its system P. aeruginosa PAO1. On the set-up: MICDrug / MICDrug in combo / MIC of adjuvant in combo: unit not given beside the values. Here is the method:
The potential of the dilipid polymyxins to serve as an adjuvant in combination with other antibiotics was evaluated against P. aeruginosa PAO1 strain (Tables 4 and 7-12). […] Checkerboard assays were performed with the dilipid polymyxins in combination with twenty-one clinically-used antibiotics. The panel included representatives from the β-lactam, carbapenem, tetracycline, aminoglycoside and fluoroquinolone antibiotic families. Other agents that are used to treat Gram-negative bacterial infection such as fosfomycin, trimethoprim and chloramphenicol were also included. […] Fractional inhibitory concentration (FIC) index was calculated for each combination to measure potential synergism between the two agents. FIC was obtained by dividing the MIC of antibiotic/adjuvant in combination by the MIC of antibiotic/adjuvant alone, while FIC index was calculated by the summation of FIC indices for the antibiotic and adjuvant. An FIC index of ≤0.5, 0.5<x≤4, or >4 denotes for synergistic, additive or antagonistic interaction, respectively. Initially, we assessed the adjuvant properties of PMBN against the panel of 21 antibiotics.
The assay was performed on 96-well plates as previously described. Briefly, the antibiotic at study was 2-fold serially diluted along the x-axis, while the adjuvant was 2-fold serially diluted along the y-axis to create a matrix in which each well consists of a combination of both at different concentrations. Overnight grown bacterial cultures were diluted in saline to 0.5 McFarland turbidity, followed by 1:50 dilution in MHB and inoculation on each well to a final concentration of approximately 5×10^5 colony forming units/mL. Wells containing only MHB with or without bacterial cells were used as positive or negative control, respectively. […] The fractional inhibitory concentration (FIC) of the antibiotic was calculated via dividing the MIC of antibiotic in the presence of adjuvant by the MIC of antibiotic alone. Similarly, the FIC of adjuvant was calculated via dividing the MIC of adjuvant in the presence of antibiotic by the MIC of adjuvant alone. The FIC index was obtained by the summation of both FIC values. The FIC index was then interpreted as synergistic, additive, or antagonistic for values of ≤0.5, 0.5<x<4, or ≥4, respectively.

SMILES strings stand for the structures. In brackets after ≈: the same amount, converted by molar mass. Where two headings read alike, the source gives them in different places. Positions of bridges follow the written chain, without caps; N, C: chain ends. Non-standard residues stand in square brackets, D forms with d. Residues, ends and D or L forms follow the SMILES beside them. Dab = NCC[C@H](N)C(=O)O

Description for pig erythrocytes: The ability of the compounds to lyse eukaryotic red blood cells was measured by the amount of hemoglobin released upon incubation with pig erythrocytes, following a published protocol [30]. Briefly, fresh pig blood (generously provided by Dr. Richard Hodges, Director of Animal Care and Veterinary Services of the University of Manitoba) drawn from a pig's antecubital vein was centrifuged at 1000 g for 5 min at 4° C., washed with phosphate-buffered saline (PBS) three times, and re-suspended in the same buffer, consecutively. Compounds at study were 2-fold serially diluted in PBS on a 96-well plate and mixed with equal volumes of erythrocyte solution. Post 1 h incubation at 37° C., the intact cells were pelleted by centrifugation at 1000 g for 5 min at 4° C. Resulting supernatant was then transferred to a new 96-well plate. The hemoglobin released was then measured via an EMax Plus microplate reader (Molecular Devices, USA) at 570 nm wavelength. Erythrocytes in PBS with or without 0.1% Triton X-100 were used as positive or negative control, respectively.

In the case of `CC(=O)N[C@H](C(=O)N[C@H](CO)C(=O)N[C@H]1CCNC(=O)[C@H]([C@@H](C)O)NC(=O)[C@H](CCN)NC(=O)[C@H](CCN)NC(=O)[C@H](CC(C)C)NC(=O)[C@@H](Cc2ccccc2)NC(=O)[C@H](CCN)NC1=O)[C@@H](C)O` [SPR741] (Ac-T[dS][Dab][Dab][dF]L[Dab][Dab]T; lactam 3-C), the tolerability entry in data set [1] is listed as “well-tolerated”.
For the molecule `CC(C)C[C@@H]1NC(=O)[C@@H](Cc2ccccc2)NC(=O)[C@H](CCN)NC(=O)[C@@H](NC(=O)[C@H](CCN)NC(=O)[C@@H](N)[C@@H](C)O)CCNC(=O)[C@H]([C@@H](C)O)NC(=O)[C@H](CCN)NC(=O)[C@H](CCN)NC1=O` [PMBN, polymyxin B nonapeptide, reference compound] (H-T[Dab][Dab][Dab][dF]L[Dab][Dab]T; lactam 3-C (inferred)), the minimal inhibitory concentration (MIC) with P. aeruginosa PAO200 (P. aeruginosa PAO200, efflux-deficient strain that lacks the MexAB-OprM pump) was 2 µg/mL (≈ 2.08 µM); with P. aeruginosa PAO750, 4 µg/mL (≈ 4.15 µM); in the data set on P. aeruginosa PAO1 [2], 128 µg/mL (≈ 133 µM). Further, the “fold difference in MIC against wild-type PAO1 and efflux-deficient PAO200” value in the data set on P. aeruginosa PAO200 (PAO1 versus PAO200 (lacks MexAB-OprM)) was 64 fold. Besides, in the data set with pig erythrocytes, the “% Hemolysis at 512 μg/mL of polymyxin” value is reported as 1.1 ± 0.1%. For the same molecule, in the data set with P. aeruginosa PAO1 [3] (adjuvant alone, one value per checkerboard, in µg/mL), the “MIC of adjuvant alone (MIC1, MIC2, MIC3, MIC4, MIC5, MICPMBN)” value was 128. For the same molecule, the Interpretation result is “Synergy (An FIC index of ≤0.5, 0.5<x≤4, or >4 denotes for synergistic, additive or antagonistic interaction, respectively)” in the data set with P. aeruginosa PAO1 [3] (combination with Aztreonam); “Synergy (An FIC index of ≤0.5, 0.5<x≤4, or >4 denotes for synergistic, additive or antagonistic interaction, respectively)” in the data set with P. aeruginosa PAO1 [3] (combination with Ceftazidime); “Synergy (An FIC index of ≤0.5, 0.5<x≤4, or >4 denotes for synergistic, additive or antagonistic interaction, respectively)” with P. aeruginosa PAO1 [3] (combination with Chloramphenicol); “Synergy (An FIC index of ≤0.5, 0.5<x≤4, or >4 denotes for synergistic, additive or antagonistic interaction, respectively)” in the data set with P. aeruginosa PAO1 [3] (combination with Ciprofloxacin); “Synergy (An FIC index of ≤0.5, 0.5<x≤4, or >4 denotes for synergistic, additive or antagonistic interaction, respectively)” with P. aeruginosa PAO1 [3] (combination with Clindamycin); “Synergy (An FIC index of ≤0.5, 0.5<x≤4, or >4 denotes for synergistic, additive or antagonistic interaction, respectively)” with P. aeruginosa PAO1 [3] (combination with Doripenem). Further, the Interpretation result with P. aeruginosa PAO1 [3] (combination with Doxycycline) is reported as “Synergy (An FIC index of ≤0.5, 0.5<x≤4, or >4 denotes for synergistic, additive or antagonistic interaction, respectively)”; in the data set on P. aeruginosa PAO1 [3] (combination with Fosfomycin), “Synergy (An FIC index of ≤0.5, 0.5<x≤4, or >4 denotes for synergistic, additive or antagonistic interaction, respectively)”; with P. aeruginosa PAO1 [3] (combination with Gentamicin) it was “Additive (An FIC index of ≤0.5, 0.5<x≤4, or >4 denotes for synergistic, additive or antagonistic interaction, respectively)”; with P. aeruginosa PAO1 [3] (combination with Linezolid) it was “Synergy (An FIC index of ≤0.5, 0.5<x≤4, or >4 denotes for synergistic, additive or antagonistic interaction, respectively)”; with P. aeruginosa PAO1 [3] (combination with Meropenem) it was “Synergy (An FIC index of ≤0.5, 0.5<x≤4, or >4 denotes for synergistic, additive or antagonistic interaction, respectively)”; in the data set with P. aeruginosa PAO1 [3] (combination with Minocycline), “Synergy (An FIC index of ≤0.5, 0.5<x≤4, or >4 denotes for synergistic, additive or antagonistic interaction, respectively)”. Besides, the Interpretation entry with P. aeruginosa PAO1 [3] (combination with Moxifloxacin) is “Synergy (An FIC index of ≤0.5, 0.5<x≤4, or >4 denotes for synergistic, additive or antagonistic interaction, respectively)”; with P. aeruginosa PAO1 [3] (combination with Novobiocin), “Synergy (An FIC index of ≤0.5, 0.5<x≤4, or >4 denotes for synergistic, additive or antagonistic interaction, respectively)”; in the data set on P. aeruginosa PAO1 [3] (combination with Piperacillin), “Synergy (An FIC index of ≤0.5, 0.5<x≤4, or >4 denotes for synergistic, additive or antagonistic interaction, respectively)”; with P. aeruginosa PAO1 [3] (combination with Pleuromutilin), “Synergy (An FIC index of ≤0.5, 0.5<x≤4, or >4 denotes for synergistic, additive or antagonistic interaction, respectively)”; in the data set with P. aeruginosa PAO1 [3] (combination with Rifampicin) it was “Synergy (An FIC index of ≤0.5, 0.5<x≤4, or >4 denotes for synergistic, additive or antagonistic interaction, respectively)”; in the data set on P. aeruginosa PAO1 [3] (combination with Streptomycin), “Additive (An FIC index of ≤0.5, 0.5<x≤4, or >4 denotes for synergistic, additive or antagonistic interaction, respectively)”. Moreover, the Interpretation result in the data set with P. aeruginosa PAO1 [3] (combination with Tobramycin) was “Additive (An FIC index of ≤0.5, 0.5<x≤4, or >4 denotes for synergistic, additive or antagonistic interaction, respectively)”; in the data set on P. aeruginosa PAO1 [3] (combination with Trimethoprim), “Synergy (An FIC index of ≤0.5, 0.5<x≤4, or >4 denotes for synergistic, additive or antagonistic interaction, respectively)”; with P. aeruginosa PAO1 [3] (combination with Vancomycin) it was “Synergy (An FIC index of ≤0.5, 0.5<x≤4, or >4 denotes for synergistic, additive or antagonistic interaction, respectively)”. Besides, the “MIC of adjuvant in combo” value was “(4)” in the data set on P. aeruginosa PAO1 [3] (in combination with Aztreonam); “(8)” with P. aeruginosa PAO1 [3] (in combination with Ceftazidime); “(1)” in the data set with P. aeruginosa PAO1 [3] (in combination with Chloramphenicol); “(32)” in the data set on P. aeruginosa PAO1 [3] (in combination with Ciprofloxacin); “(0.5)” with P. aeruginosa PAO1 [3] (in combination with Clindamycin); “(8)” in the data set with P. aeruginosa PAO1 [3] (in combination with Doripenem). The “MIC of adjuvant in combo” value in the data set with P. aeruginosa PAO1 [3] (in combination with Doxycycline) is listed as “(4)”; in the data set with P. aeruginosa PAO1 [3] (in combination with Fosfomycin) it was “(32)”; in the data set on P. aeruginosa PAO1 [3] (in combination with Gentamicin) it was “(64)”; with P. aeruginosa PAO1 [3] (in combination with Linezolid) it was “(4)”; with P. aeruginosa PAO1 [3] (in combination with Meropenem), “(16)”; in the data set on P. aeruginosa PAO1 [3] (in combination with Minocycline), “(8)”. In addition, the “MIC of adjuvant in combo” value with P. aeruginosa PAO1 [3] (in combination with Moxifloxacin) is recorded as “(32)”; in the data set on P. aeruginosa PAO1 [3] (in combination with Novobiocin), “(4)”; with P. aeruginosa PAO1 [3] (in combination with Piperacillin), “(8)”; with P. aeruginosa PAO1 [3] (in combination with Pleuromutilin) it was “(0.5)”; in the data set with P. aeruginosa PAO1 [3] (in combination with Rifampicin), “(0.5)”; in the data set with P. aeruginosa PAO1 [3] (in combination with Streptomycin), “(0.5)”. Moreover, the “MIC of adjuvant in combo” value is “(0.5)” in the data set with P. aeruginosa PAO1 [3] (in combination with Tobramycin), “(4)” in the data set on P. aeruginosa PAO1 [3] (in combination with Trimethoprim) and “(1)” in the data set on P. aeruginosa PAO1 [3] (in combination with Vancomycin). In the data set on P. aeruginosa PAO1 [3] (result in words), the “adjuvant activity (potentiation of the panel of 21 antibiotics)” value was “potentiated all antibiotics tested except for those belonging to the aminoglycoside family”.
For the molecule `CCN1CCN(C(=O)N[C@@H](C(=O)N[C@@H]2C(=O)N3[C@@H]2SC(C)(C)[C@@H]3C(=O)O)c2ccccc2)C(=O)C1=O` [Piperacillin, reference compound], the MICDrug in the data set with P. aeruginosa PAO1 [3] (antibiotic alone) turned out to be 4. The MICDrug in combo entry with P. aeruginosa PAO1 [3] (antibiotic in combination with 1) is “(2)”; in the data set on P. aeruginosa PAO1 [3] (antibiotic in combination with 2), “(0.0625)”; with P. aeruginosa PAO1 [3] (antibiotic in combination with 3), “(2)”; in the data set with P. aeruginosa PAO1 [3] (antibiotic in combination with 4), “(4)”; in the data set with P. aeruginosa PAO1 [3] (antibiotic in combination with 5), “(2)”; in the data set with P. aeruginosa PAO1 [3] (antibiotic in combination with PMBN), “(1)”.

(Values after US20210261621A1, “Preparation of Dilipid Polymixins and Use Thereof as Antimicrobial Adjuvants” (priority 2018, published 2021).)
